Here are results for nine compounds from US20250179047A1, “5-[7-(3,4-DIHYDRO-1H-ISOQUINOLINE-2-CARBONYL)-1,2,3,4 TETRAHYDROISOQUINOLIN-6-YL]-1H-PYRROLE-3-CARBOXAMIDE DERIVATIVES, PHARMACEUTICAL COMPOSITIONS CONTAINING THEM AND THEIR USES AS PRO-APOPTOTIC AGENTS” (LES LABORATOIRES SERVIER, priority 2022, published 2025).

Assay [1] has as its target BCL2 WT (Homo sapiens (Human), UniProt P10415). Nature of the assay: TR-FRET competitive binding assay, BCL2 WT. The following applies: Ki determined from IC50, read-out: TR_FRET EKI_Bcl2 WT. An outline of the steps: (§1)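 Terbium-labelled N-terminal Halo-fusion BCL2 or BCLXL (E. coli), 0.5 nM, competed against fluorescein-labelled PUMA peptide (2 or 20 nM) for 2 h at 23° C in 50 mM Hepes pH 7.5, 150 mM NaCl, 5% DMSO. TR-FRET 520/495 nm ratio gave IC50 by four-parameter fit; Ki derived from IC50.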
In general terms: Time-resolved FRET reads energy transfer from a long-lived donor to a nearby acceptor.

Assay [2] deals with BCL2 D103Y (Homo sapiens, UniProt P10415, D103Y). Nature of the assay: TR-FRET competitive binding assay, BCL2 D103Y. The following applies: Ki determined from IC50, read-out: TR_FRET EKI_Bcl2 D103Y. An outline of the steps: as §1
Assay [3] deals with KMS-12-PE Bcl-2 WT. Briefly: In vitro cytotoxicity CellTiter-Glo 48 h, KMS-12-PE Bcl-2 WT. In kind it is cell-based. The following applies: Homo sapiens, KMS-12-PE, C50 = concentration needed to reach 50% of the cellular viability. A digest of the protocol:
(§2)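 Transduce KMS-12-PE with Bcl-2 WT or G101V lentivirus, then FACS-sort RFP-positive cells. Add compounds in an 11-point dilution series and incubate 48 h at 37 °C. Measure ATP-based luminescence with CellTiter-Glo and derive C50 (50% viability).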

Assay [4] deals with KMS-12-PE Bcl-2 G101V. Nature of the assay: In vitro cytotoxicity CellTiter-Glo 48 h, KMS-12-PE Bcl-2 G101V. It is filed as cell-based. The following applies: for Ratio (G101V/WT): C50 KMS-12-PE Bcl-2 G101V over C50 KMS-12-PE Bcl-2 WT; for IC50: Homo sapiens, KMS-12-PE, 48 h, CellTiter-Glo, C50 = concentration needed to reach 50% of the cellular viability. An outline of the steps:
as §2

Assay [5] has as its system BCL2 G101V. Nature of the assay: TR-FRET competitive binding assay, BCL2 G101V. Also noted: species or system human. Conditions: ratio Ki BCL2 G101V / Ki BCL2 WT. A digest of the protocol:
as §1

Assay [6] deals with BCL2 G101V (Homo sapiens, UniProt P10415, G101V). Nature of the assay: TR-FRET competitive binding assay, BCL2 G101V. The following applies: BCL2 G101V; Ki determined from IC50; read-out: TR_FRET EKI_Bcl2 G101V. An outline of the steps:
as §1

In assay [7] the target is BCLXL WT (Homo sapiens (Human), UniProt Q07817). Nature of the assay: TR-FRET competitive binding assay, BCLXL WT. The following applies: for Ki: BCLXL WT, Ki determined from IC50, read-out: TR_FRET EKI BclxL; for TR_FRET EKI BCLxL/WT selectivty ratio: ratio Ki BCLxL / Ki BCL2 WT. A digest of the protocol: as §1
BCLXL WT, sequence (Q07817 other isoform, or with tags, fused parts or gaps): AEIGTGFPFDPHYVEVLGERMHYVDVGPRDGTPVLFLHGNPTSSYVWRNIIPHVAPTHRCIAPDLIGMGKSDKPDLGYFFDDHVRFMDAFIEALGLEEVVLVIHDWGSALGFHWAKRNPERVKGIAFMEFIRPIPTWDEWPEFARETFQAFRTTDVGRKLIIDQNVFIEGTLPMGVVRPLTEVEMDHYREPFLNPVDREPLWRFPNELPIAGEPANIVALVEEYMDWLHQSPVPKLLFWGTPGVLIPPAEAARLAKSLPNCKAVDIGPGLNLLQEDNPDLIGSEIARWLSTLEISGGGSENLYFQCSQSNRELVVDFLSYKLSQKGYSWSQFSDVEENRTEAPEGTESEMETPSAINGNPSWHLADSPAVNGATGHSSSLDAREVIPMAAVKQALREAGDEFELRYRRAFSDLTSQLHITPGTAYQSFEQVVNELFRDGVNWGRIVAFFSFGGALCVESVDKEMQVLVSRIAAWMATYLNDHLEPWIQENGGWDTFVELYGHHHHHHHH

With `Cc1c(N(C(=O)c2cc(-c3cc4c(cc3C(=O)N3Cc5ccccc5C[C@H]3C)CN(C(=O)Cc3ccc(OCCN5CC6(CCS6(=O)=O)C5)cc3)CC4)n(C)c2C)c2ccc(O)cc2)cc(C#N)n1C` [Example 37, N-(5-cyano-1,2-dimethyl-1H-pyrrol-3-yl)-5-(2-{2-[4-(2-{1,1-dioxo-1λ^6-thia-6-azaspiro[3.3]heptan-6-yl}ethoxy)phenyl]acetyl}-7-[(3R)-3-methyl-1,2,3,4-tetrahydroisoquinoline-2-carbonyl]-1,2,3,4-tetrahydroisoquinolin-6-yl)-N-(4-hydroxyphenyl)-1,2-dimethyl-1H-pyrrole-3-carboxamide], the Ki in assay [1] is 0.1 nM; in assay [2] it was 0.28 nM; in assay [6] it was 0.3 nM; in assay [7] it was 1.3 nM. In addition, the half-maximal inhibitory concentration (IC50) in assay [3] worked out at 0.0174 µM; in assay [4], 0.0932 µM. In addition, the “Ratio (G101V/WT)” value in assay [4] turned out to be 5.36. For the same compound, the “TR_FRET EKI G101V/WT selectivty ratio” value in assay [5] is reported as 2.7. In addition, the “TR_FRET EKI BCLxL/WT selectivty ratio” value in assay [7] amounted to 13.0.

For the compound `Cc1c(N(C(=O)c2cc(-c3cc4c(cc3C(=O)N3Cc5ccccc5C[C@H]3C)CN(C(=O)Cc3ccc(N5CCN6CC(F)(F)C[C@H]6C5)cc3F)CC4)n(C)c2C)c2ccc(O)cc2)cc(C#N)n1C` [Example 40, 5-[2-(2-{4-[(8aS)-7,7-difluoro-hexahydropyrrolo[1,2-a]piperazin-2-yl]-2-fluorophenyl}acetyl)-7-{[(3R)-3-methyl-3,4-dihydro-1H-isoquinolin-2-yl]carbonyl}-3,4-dihydro-1H-isoquinolin-6-yl]-N-(5-cyano-1,2-dimethylpyrrol-3-yl)-N-(4-hydroxyphenyl)-1,2-dimethylpyrrole-3-carboxamide], the Ki in assay [1] was determined as 0.68 nM; in assay [2], 2.11 nM; in assay [6], 3 nM; in assay [7], 7 nM. Further, the IC50 in assay [3] is 0.0094 µM; in assay [4], 0.0426 µM. Besides, the “Ratio (G101V/WT)” value in assay [4] stood at 4.54. For the same compound, in assay [5], the “TR_FRET EKI G101V/WT selectivty ratio” value is reported as 4.4. The “TR_FRET EKI BCLxL/WT selectivty ratio” value in assay [7] turned out to be 10.3.

As for `CCn1c(C#N)cc(N(C(=O)c2cc(-c3cc4c(cc3C(=O)N3Cc5ccccc5C[C@H]3C)CN(C(=O)Cc3ccc(OCCN5CCOCC5)cc3)CC4)n(C)c2C)c2ccc(O)cc2)c1C` [Example 41, N-(5-cyano-1-ethyl-2-methyl-pyrrol-3-yl)-N-(4-hydroxyphenyl)-1,2-dimethyl-5-[7-[(3R)-3-methyl-3,4-dihydro-1H-isoquinoline-2-carbonyl]-2-[2-[4-(2-morpholinoethoxy)phenyl]acetyl]-3,4-dihydro-1H-isoquinolin-6-yl]pyrrole-3-carboxamide], the Ki is 0.12 nM in assay [1], 0.55 nM in assay [2], 0.4 nM in assay [6] and 2 nM in assay [7]. For the same compound, the IC50 came out at 0.0094 µM in assay [3] and 0.051 µM in assay [4]. Also, in assay [4], the “Ratio (G101V/WT)” value is listed as 5.41. Also, the “TR_FRET EKI G101V/WT selectivty ratio” value in assay [5] came out at 3.1. Besides, the “TR_FRET EKI BCLxL/WT selectivty ratio” value in assay [7] is recorded as 16.7.

Regarding `Cc1c(N(C(=O)c2cc(-c3cc4c(cc3C(=O)N3Cc5ccccc5C[C@H]3C)CN(C(=O)Cc3ccc(OCCN5CC(F)C5)cc3)CC4)n(C)c2C)c2ccc(O)cc2)cc(C#N)n1C` [Example 49, N-(5-cyano-1,2-dimethyl-1H-pyrrol-3-yl)-5-[2-(2-{4-[2-(3-fluoroazetidin-1-yl)ethoxy]phenyl}acetyl)-7-[(3R)-3-methyl-1,2,3,4-tetrahydroisoquinoline-2-carbonyl]-1,2,3,4-tetrahydroisoquinolin-6-yl]-N-(4-hydroxyphenyl)-1,2-dimethyl-1H-pyrrole-3-carboxamide], the Ki in assay [1] was 0.1 nM; in assay [2] it was 0.17 nM; in assay [6], 0.2 nM; in assay [7], 1.3 nM. The IC50 amounted to 0.0118 µM in assay [3] and 0.0697 µM in assay [4]. The “Ratio (G101V/WT)” value in assay [4] stood at 5.91. In assay [5], the “TR_FRET EKI G101V/WT selectivty ratio” value stood at 2.3. The “TR_FRET EKI BCLxL/WT selectivty ratio” value in assay [7] was 13.0.

With `Cc1c(N(C(=O)c2cc(-c3cc4c(cc3C(=O)N3Cc5ccccc5C[C@H]3C)CN(Cc3cc5ccccc5cn3)CC4)n(C)c2C)c2ccc(O)cc2)cc(C#N)n1C` [Example 58, N-(5-cyano-1,2-dimethylpyrrol-3-yl)-N-(4-hydroxyphenyl)-5-[2-(isoquinolin-3-ylmethyl)-7-{[(3R)-3-methyl-3,4-dihydro-1H-isoquinolin-2-yl]carbonyl}-3,4-dihydro-1H-isoquinolin-6-yl]-1,2-dimethylpyrrole-3-carboxamide], the Ki was 0.21 nM in assay [1], 0.51 nM in assay [2], 1.7 nM in assay [6] and 2.3 nM in assay [7]. In addition, the IC50 in assay [3] was 0.005 µM; in assay [4], 0.0396 µM. For the same compound, the “Ratio (G101V/WT)” value in assay [4] turned out to be 7.95. In assay [5], the “TR_FRET EKI G101V/WT selectivty ratio” value is 8.1. Further, in assay [7], the “TR_FRET EKI BCLxL/WT selectivty ratio” value is 11.0.

With `Cc1c(N(C(=O)c2cc(-c3cc4c(cc3C(=O)N3Cc5ccccc5C[C@H]3C)CN(C(=O)Cc3ccc(OCCC5CCOCC5)nc3)CC4)n(C)c2C)c2ccc(O)cc2)cc(C#N)n1C` [Example 59, N-(5-cyano-1,2-dimethyl-1H-pyrrol-3-yl)-N-(4-hydroxyphenyl)-1,2-dimethyl-5-{7-[(3R)-3-methyl-1,2,3,4-tetrahydroisoquinoline-2-carbonyl]-2-(2-{6-[2-(oxan-4-yl)ethoxy]pyridin-3-yl}acetyl)-1,2,3,4-tetrahydroisoquinolin-6-yl}-1H-pyrrole-3-carboxamide], the Ki in assay [1] amounted to 0.16 nM; in assay [2] it was 0.4 nM; in assay [6] it was 0.7 nM; in assay [7], 3 nM. For the same compound, the IC50 in assay [3] worked out at 0.0064 µM; in assay [4], 0.0331 µM. In addition, the “Ratio (G101V/WT)” value in assay [4] is 5.15. In addition, the “TR_FRET EKI G101V/WT selectivty ratio” value in assay [5] is reported as 4.6. For the same compound, the “TR_FRET EKI BCLxL/WT selectivty ratio” value in assay [7] is 19.1.

In the case of `Cc1c(C(=O)N(c2ccc(O)cc2)c2cc(C#N)n(C(C)C)c2C)cc(-c2cc3c(cc2C(=O)N2Cc4ccccc4C[C@H]2C)CN(C(=O)Cc2ccc(OCCN4CCOCC4)cc2)CC3)n1C` [Example 64, N-(5-cyano-1-isopropyl-2-methyl-pyrrol-3-yl)-N-(4-hydroxyphenyl)-1,2-dimethyl-5-[7-[(3R)-3-methyl-3,4-dihydro-1H-isoquinoline-2-carbonyl]-2-[2-[4-(2-morpholinoethoxy)phenyl]acetyl]-3,4-dihydro-1H-isoquinolin-6-yl]pyrrole-3-carboxamide], the Ki in assay [1] turned out to be 0.11 nM; in assay [2], 0.79 nM; in assay [6], 0.5 nM; in assay [7], 2.8 nM. Moreover, the IC50 was determined as 0.0156 µM in assay [3] and 0.0745 µM in assay [4]. Besides, in assay [4], the “Ratio (G101V/WT)” value was 4.78. Moreover, the “TR_FRET EKI G101V/WT selectivty ratio” value in assay [5] stood at 4.5. In addition, the “TR_FRET EKI BCLxL/WT selectivty ratio” value in assay [7] is given as 25.5.

`COCCn1c(C#N)cc(N(C(=O)c2cc(-c3cc4c(cc3C(=O)N3Cc5ccccc5C[C@H]3C)CN(C(=O)Cc3ccc(OCCN5CCOCC5)cc3)CC4)n(C)c2C)c2ccc(O)cc2)c1C` [Example 68, N-[5-cyano-1-(2-methoxyethyl)-2-methyl-pyrrol-3-yl]-N-(4-hydroxyphenyl)-1,2-dimethyl-5-[7-[(3R)-3-methyl-3,4-dihydro-1H-isoquinoline-2-carbonyl]-2-[2-[4-(2-morpholinoethoxy)phenyl]acetyl]-3,4-dihydro-1H-isoquinolin-6-yl]pyrrole-3-carboxamide]: the Ki in assay [1] was found to be 0.07 nM; in assay [2], 0.23 nM; in assay [6] it was 0.4 nM; in assay [7], 1.6 nM. Also, the figures for the IC50 in assay [3] and in assay [4] were 0.0096 µM and 0.0556 µM, respectively. The “Ratio (G101V/WT)” value in assay [4] is listed as 5.82. Besides, in assay [5], the “TR_FRET EKI G101V/WT selectivty ratio” value worked out at 5.7. Moreover, in assay [7], the “TR_FRET EKI BCLxL/WT selectivty ratio” value amounted to 24.6.

Regarding `Cc1c(N(C(=O)c2cc(-c3cc4c(cc3C(=O)N3Cc5ccccc5C[C@H]3C)CN(C(=O)Cc3cc(F)c(OCCN5CCOCC5)cc3F)CC4)n(C)c2C)c2ccc(O)cc2)cc(C#N)n1C` [Example 69, N-(5-cyano-1,2-dimethylpyrrol-3-yl)-5-[2-(2-{2,5-difluoro-4-[2-(morpholin-4-yl)ethoxy]phenyl}acetyl)-7-{[(3R)-3-methyl-3,4-dihydro-1H-isoquinolin-2-yl]carbonyl}-3,4-dihydro-1H-isoquinolin-6-yl]-N-(4-hydroxyphenyl)-1,2-dimethylpyrrole-3-carboxamide], the Ki in assay [1] is 0.25 nM; in assay [2], 0.5 nM; in assay [6] it was 2 nM; in assay [7], 4.3 nM. The figures for the half-inhibitory concentration (IC50) in assay [3] and in assay [4] were 0.0047 µM and 0.043 µM, respectively. Also, the “Ratio (G101V/WT)” value in assay [4] is listed as 9.23. Also, in assay [5], the “TR_FRET EKI G101V/WT selectivty ratio” value was 7.9. The “TR_FRET EKI BCLxL/WT selectivty ratio” value in assay [7] amounted to 17.2.

For orientation: IC50 means the concentration that gives 50% inhibition.
